Measured values published in ChEMBL document CHEMBL5724806, “Unraveling interindividual differences and functional consequences of gut microbial metabolism of immunosuppressants” (2024).

Legend:
Type in all cases: ADME
[1] = (§1) The drug is tested on Bacteroides fragilis strain: DSM2151 for biotransformation under anaerobic condition. The drug concentrations were measured over 6 timepoints collected between 0 and 12 hours of incubation by liquid-chromatography-coupled mass spectrometry (LC–MS); parameters: dose 5 uM, timepoint 0, 1.5, 3, 6, 9, 12 hours; details: 5 µM
[2] = The drug is tested on Bacteroides ovatus strain: ATCC 8483 for biotransformation under anaerobic condition. The drug concentrations were measured over 6 timepoints collected between 0 and 12 hours of incubation by liquid-chromatography-coupled mass spectrometry (LC–MS); parameters: dose 5 uM, timepoint 0, 1.5, 3, 6, 9, 12 hours; details: 5 µM
[3] = The drug is tested on Bacteroides thetaiotaomicron strain: DSM2079 for biotransformation under anaerobic condition. The drug concentrations were measured over 6 timepoints collected between 0 and 12 hours of incubation by liquid-chromatography-coupled mass spectrometry (LC–MS); parameters: dose 5 uM, timepoint 0, 1.5, 3, 6, 9, 12 hours; details: 5 µM
[4] = The drug is tested on Bacteroides uniformis strain: DSM6597 for biotransformation under anaerobic condition. The drug concentrations were measured over 6 timepoints collected between 0 and 12 hours of incubation by liquid-chromatography-coupled mass spectrometry (LC–MS); parameters: dose 5 uM, timepoint 0, 1.5, 3, 6, 9, 12 hours; details: 5 µM
[5] = The drug is tested on Bacteroides vulgatus strain: DSM1447 for biotransformation under anaerobic condition. The drug concentrations were measured over 6 timepoints collected between 0 and 12 hours of incubation by liquid-chromatography-coupled mass spectrometry (LC–MS); parameters: dose 5 uM, timepoint 0, 1.5, 3, 6, 9, 12 hours; details: phocaeicola vulgatus, 5 µM
[6] = The drug is tested on Capnocytophaga ochracea strain: DSM7271 for biotransformation under anaerobic condition. The drug concentrations were measured over 6 timepoints collected between 0 and 12 hours of incubation by liquid-chromatography-coupled mass spectrometry (LC–MS); parameters: dose 5 uM, timepoint 0, 1.5, 3, 6, 9, 12 hours; details: 5 µM
[7] = The drug is tested on Parabacteroides distasonis strain: DSM20701 for biotransformation under anaerobic condition. The drug concentrations were measured over 6 timepoints collected between 0 and 12 hours of incubation by liquid-chromatography-coupled mass spectrometry (LC–MS); parameters: dose 5 uM, timepoint 0, 1.5, 3, 6, 9, 12 hours; details: 5 µM
[8] = The drug is tested on Eubacterium rectale strain: DSM17629 for biotransformation under anaerobic condition. The drug concentrations were measured over 6 timepoints collected between 0 and 12 hours of incubation by liquid-chromatography-coupled mass spectrometry (LC–MS); parameters: dose 5 uM, timepoint 0, 1.5, 3, 6, 9, 12 hours; details: agathobacter rectalis, 5 µM
[9] = The drug is tested on Faecalibacterium prausnitzii strain: DSM17677 for biotransformation under anaerobic condition. The drug concentrations were measured over 6 timepoints collected between 0 and 12 hours of incubation by liquid-chromatography-coupled mass spectrometry (LC–MS); parameters: dose 5 uM, timepoint 0, 1.5, 3, 6, 9, 12 hours; details: faecalibacterium duncaniae, 5 µM
[10] = The drug is tested on Lactobacillus paracasei strain: ATCC27092 for biotransformation under anaerobic condition. The drug concentrations were measured over 6 timepoints collected between 0 and 12 hours of incubation by liquid-chromatography-coupled mass spectrometry (LC–MS); parameters: dose 5 uM, timepoint 0, 1.5, 3, 6, 9, 12 hours; details: lacticaseibacillus paracasei, 5 µM
[11] = The drug is tested on Lactobacillus reuteri strain: DSM20016 for biotransformation under anaerobic condition. The drug concentrations were measured over 6 timepoints collected between 0 and 12 hours of incubation by liquid-chromatography-coupled mass spectrometry (LC–MS); parameters: dose 5 uM, timepoint 0, 1.5, 3, 6, 9, 12 hours; details: limosilactobacillus reuteri, 5 µM
[12] = The drug is tested on Lactobacillus ruminis strain: ATCC25644 for biotransformation under anaerobic condition. The drug concentrations were measured over 6 timepoints collected between 0 and 12 hours of incubation by liquid-chromatography-coupled mass spectrometry (LC–MS); parameters: dose 5 uM, timepoint 0, 1.5, 3, 6, 9, 12 hours; details: ligilactobacillus ruminis, 5 µM
[13] = The drug is tested on Streptococcus anginosus strain: DSM20563 for biotransformation under anaerobic condition. The drug concentrations were measured over 6 timepoints collected between 0 and 12 hours of incubation by liquid-chromatography-coupled mass spectrometry (LC–MS); parameters: dose 5 uM, timepoint 0, 1.5, 3, 6, 9, 12 hours; details: 5 µM
[14] = (§2) The drug is tested on Bifidobacterium longum strain: DSM20088 for biotransformation under microaerobic condition. The drug concentrations were measured over 6 timepoints collected between 0 and 12 hours of incubation by liquid-chromatography-coupled mass spectrometry (LC–MS); parameters: dose 5 uM, timepoint 0, 1.5, 3, 6, 9, 12 hours; details: 5 µM
[15] = The drug is tested on Gemella morbillorum strain: DSM20572 for biotransformation under microaerobic condition. The drug concentrations were measured over 6 timepoints collected between 0 and 12 hours of incubation by liquid-chromatography-coupled mass spectrometry (LC–MS); parameters: dose 5 uM, timepoint 0, 1.5, 3, 6, 9, 12 hours; details: 5 µM
[16] = The drug is tested on Lactobacillus gasseri strain: DSM20243 for biotransformation under microaerobic condition. The drug concentrations were measured over 6 timepoints collected between 0 and 12 hours of incubation by liquid-chromatography-coupled mass spectrometry (LC–MS); parameters: dose 5 uM, timepoint 0, 1.5, 3, 6, 9, 12 hours; details: 5 µM
[17] = The drug is tested on Streptococcus anginosus strain: DSM20563 for biotransformation under microaerobic condition. The drug concentrations were measured over 6 timepoints collected between 0 and 12 hours of incubation by liquid-chromatography-coupled mass spectrometry (LC–MS); parameters: dose 5 uM, timepoint 0, 1.5, 3, 6, 9, 12 hours; details: 5 µM
[18] = The drug is tested on Streptococcus mitis strain: DSM12643 for biotransformation under microaerobic condition. The drug concentrations were measured over 6 timepoints collected between 0 and 12 hours of incubation by liquid-chromatography-coupled mass spectrometry (LC–MS); parameters: dose 5 uM, timepoint 0, 1.5, 3, 6, 9, 12 hours; details: 5 µM
[19] = The drug is tested on Streptococcus salivarius strain: DSM20560 for biotransformation under microaerobic condition. The drug concentrations were measured over 6 timepoints collected between 0 and 12 hours of incubation by liquid-chromatography-coupled mass spectrometry (LC–MS); parameters: dose 5 uM, timepoint 0, 1.5, 3, 6, 9, 12 hours; details: 5 µM
[20] = as §1, with “the gut metagenome community of A-02 with ENA study accession number: PRJEB31790” for “Bacteroides fragilis strain: DSM2151”, “7” for “6”; parameters: dose 5 uM, timepoint 0, 0.75, 1.5, 3, 6, 9, 12 hours; details: 5 µM
[21] = as §1, with “the gut metagenome community of A-03 with ENA study accession number: PRJEB31790” for “Bacteroides fragilis strain: DSM2151”, “7” for “6”; parameters: dose 5 uM, timepoint 0, 0.75, 1.5, 3, 6, 9, 12 hours; details: 5 µM
[22] = as §1, with “the gut metagenome community of A-07 with ENA study accession number: PRJEB31790” for “Bacteroides fragilis strain: DSM2151”, “7” for “6”; parameters: dose 5 uM, timepoint 0, 0.75, 1.5, 3, 6, 9, 12 hours; details: 5 µM
[23] = as §1, with “the gut metagenome community of P-03 with ENA study accession number: PRJEB31790” for “Bacteroides fragilis strain: DSM2151”, “7” for “6”; parameters: dose 5 uM, timepoint 0, 0.75, 1.5, 3, 6, 9, 12 hours; details: 5 µM
[24] = as §1, with “the gut metagenome community of P-04 with ENA study accession number: PRJEB31790” for “Bacteroides fragilis strain: DSM2151”, “7” for “6”; parameters: dose 5 uM, timepoint 0, 0.75, 1.5, 3, 6, 9, 12 hours; details: 5 µM
[25] = as §1, with “the gut metagenome community of T-05 with ENA study accession number: PRJEB31790” for “Bacteroides fragilis strain: DSM2151”, “7” for “6”; parameters: dose 5 uM, timepoint 0, 0.75, 1.5, 3, 6, 9, 12 hours; details: 5 µM
[26] = as §2, with “the gut metagenome community of A-01 with ENA study accession number: PRJEB31790” for “Bifidobacterium longum strain: DSM20088”, “7” for “6”; parameters: dose 5 uM, timepoint 0, 0.75, 1.5, 3, 6, 9, 12 hours; details: 5 µM
[27] = as §2, with “the gut metagenome community of A-09 with ENA study accession number: PRJEB31790” for “Bifidobacterium longum strain: DSM20088”, “7” for “6”; parameters: dose 5 uM, timepoint 0, 0.75, 1.5, 3, 6, 9, 12 hours; details: 5 µM
[28] = as §2, with “the gut metagenome community of T-02 with ENA study accession number: PRJEB31790” for “Bifidobacterium longum strain: DSM20088”, “7” for “6”; parameters: dose 5 uM, timepoint 0, 0.75, 1.5, 3, 6, 9, 12 hours; details: 5 µM
[29] = as §2, with “the gut metagenome community of T-03 with ENA study accession number: PRJEB31790” for “Bifidobacterium longum strain: DSM20088”, “7” for “6”; parameters: dose 5 uM, timepoint 0, 0.75, 1.5, 3, 6, 9, 12 hours; details: 5 µM
[30] = as §2, with “the gut metagenome community of T-04 with ENA study accession number: PRJEB31790” for “Bifidobacterium longum strain: DSM20088”, “7” for “6”; parameters: dose 5 uM, timepoint 0, 0.75, 1.5, 3, 6, 9, 12 hours; details: 5 µM

Row | Structure (SMILES) | Bacterial Biotransformation [1] | Bacterial Biotransformation [2] | Bacterial Biotransformation [3] | Bacterial Biotransformation [4] | Bacterial Biotransformation [5] | Bacterial Biotransformation [6] | Bacterial Biotransformation [7] | Bacterial Biotransformation [8] | Bacterial Biotransformation [9] | Bacterial Biotransformation [10] | Bacterial Biotransformation [11] | Bacterial Biotransformation [12] | Bacterial Biotransformation [13] | Bacterial Biotransformation [14] | Bacterial Biotransformation [15] | Bacterial Biotransformation [16] | Bacterial Biotransformation [17] | Bacterial Biotransformation [18] | Bacterial Biotransformation [19] | Bacterial Biotransformation [20] | other results
1 | C[C@H]1C[C@H]2[C@@H]3CCC4=CC(=O)C=C[C@]4(C)[C@@]3(F)[C@@H](O)C[C@]2(C)[C@@]1(O)C(=O)CO [BETAMETHASONE] | Compound NOT metabolized | Compound NOT metabolized | Compound NOT metabolized | Compound NOT metabolized | Compound NOT metabolized | Compound NOT metabolized | Compound NOT metabolized | Compound NOT metabolized | Compound NOT metabolized | Compound NOT metabolized | Compound NOT metabolized | Compound NOT metabolized | Compound NOT metabolized | Compound NOT metabolized | Compound NOT metabolized | Compound NOT metabolized | Compound NOT metabolized | Compound NOT metabolized | Compound NOT metabolized | Compound metabolized | Bacterial Biotransformation [21]: Compound metabolized; Bacterial Biotransformation [22]: Compound metabolized; Bacterial Biotransformation [23]: Compound metabolized; Bacterial Biotransformation [24]: Compound NOT metabolized; Bacterial Biotransformation [25]: Compound NOT metabolized; Bacterial Biotransformation [26]: Compound NOT metabolized; Bacterial Biotransformation [27]: Compound metabolized; Bacterial Biotransformation [28]: Compound metabolized; Bacterial Biotransformation [29]: Compound NOT metabolized; Bacterial Biotransformation [30]: Compound NOT metabolized
2 | CCCC1O[C@@H]2C[C@H]3[C@@H]4CCC5=CC(=O)C=C[C@]5(C)[C@H]4[C@@H](O)C[C@]3(C)[C@]2(C(=O)CO)O1 (stereo not given in full) [BUDESONIDE] | Compound NOT metabolized | Compound NOT metabolized | Compound NOT metabolized | Compound NOT metabolized | Compound NOT metabolized | Compound NOT metabolized | Compound NOT metabolized | Compound NOT metabolized | Compound NOT metabolized | Compound NOT metabolized | Compound NOT metabolized | Compound NOT metabolized | Compound NOT metabolized | Compound NOT metabolized | Compound NOT metabolized | Compound NOT metabolized | Compound NOT metabolized | Compound NOT metabolized | Compound NOT metabolized | Compound NOT metabolized | Bacterial Biotransformation [21]: Compound NOT metabolized; Bacterial Biotransformation [22]: Compound metabolized; Bacterial Biotransformation [23]: Compound metabolized; Bacterial Biotransformation [24]: Compound NOT metabolized; Bacterial Biotransformation [25]: Compound NOT metabolized; Bacterial Biotransformation [26]: Compound NOT metabolized; Bacterial Biotransformation [27]: Compound metabolized; Bacterial Biotransformation [28]: Compound NOT metabolized; Bacterial Biotransformation [29]: Compound NOT metabolized; Bacterial Biotransformation [30]: Compound metabolized
3 | C[C@]12CCC(=O)C=C1CC[C@@H]1[C@@H]2C(=O)C[C@@]2(C)[C@H]1CC[C@]2(O)C(=O)CO [CORTISONE] | Compound NOT metabolized | Compound NOT metabolized | Compound NOT metabolized | Compound NOT metabolized | Compound NOT metabolized | Compound NOT metabolized | Compound NOT metabolized | Compound NOT metabolized | Compound NOT metabolized | Compound NOT metabolized | Compound NOT metabolized | Compound NOT metabolized | Compound NOT metabolized | Compound NOT metabolized | Compound NOT metabolized | Compound NOT metabolized | Compound NOT metabolized | Compound NOT metabolized | Compound NOT metabolized | Compound metabolized | Bacterial Biotransformation [21]: Compound metabolized; Bacterial Biotransformation [22]: Compound metabolized; Bacterial Biotransformation [23]: Compound metabolized; Bacterial Biotransformation [24]: Compound metabolized; Bacterial Biotransformation [25]: Compound metabolized; Bacterial Biotransformation [26]: Compound metabolized; Bacterial Biotransformation [27]: Compound metabolized; Bacterial Biotransformation [28]: Compound metabolized; Bacterial Biotransformation [29]: Compound NOT metabolized; Bacterial Biotransformation [30]: Compound NOT metabolized
